# Calls of active or inactive are those of the source. The calls are words filed in the database; no cut-off is given here.
# Tests used:
# Mus musculus [1] = assay: Neurotoxicity in C57BL/6 mouse assessed as haloperidol-induced deffect in motor coordination at 3 mg/kg, ip administered 15 mins prior to haloperidol challenge measured at 0.5 to 1 hr post haloperidol challenge; assay type: toxicity, organism-based; parameters: dose 3 mg/kg, route intraperitoneal; settings: in vivo
# Mus musculus [2] = assay: Neurotoxicity in C57BL/6 mouse assessed as potentiation of haloperidol-induced catalepsy at 1 to 10 mg/kg, ip administered 15 mins prior to haloperidol challenge measured at 0.5 to 1 hr post haloperidol challenge; assay type: toxicity, organism-based; parameters: route intraperitoneal; settings: in vivo
# Mus musculus [3] = assay: Neurotoxicity in C57BL/6 mouse assessed as induction of catalepsy at 1 to 10 mg/kg, ip measured at 0.5 to 1 hr; assay type: toxicity, organism-based; parameters: route intraperitoneal; settings: in vivo
# Mus musculus [4] = assay: Neurotoxicity in C57BL/6 mouse assessed as induction of catalepsy at 30 mg/kg, ip measured at 0.5 to 1 hr; assay type: toxicity, organism-based; parameters: dose 30 mg/kg, route intraperitoneal; settings: in vivo
# Mus musculus [5] = assay: Antiparkinsonian activity in C57BL/6 mouse assessed as decrease in MPTP-induced rearing behavior impairment at 30 mg/kg, ip administered 15 mins on day 7 post MPTP challenge; assay type: functional, organism-based; parameters: dose 30 mg/kg
# [6] = molecular target: T1, High affinity 3',5'-cyclic-AMP phosphodiesterase 7A (Mus musculus, UniProt P70453); assay: Inhibition of mouse PDE7A assessed as [3H]cAMP hydrolysis after 5 to 15 mins by scintillation counter
# T1 sequence (P70453 whole entry): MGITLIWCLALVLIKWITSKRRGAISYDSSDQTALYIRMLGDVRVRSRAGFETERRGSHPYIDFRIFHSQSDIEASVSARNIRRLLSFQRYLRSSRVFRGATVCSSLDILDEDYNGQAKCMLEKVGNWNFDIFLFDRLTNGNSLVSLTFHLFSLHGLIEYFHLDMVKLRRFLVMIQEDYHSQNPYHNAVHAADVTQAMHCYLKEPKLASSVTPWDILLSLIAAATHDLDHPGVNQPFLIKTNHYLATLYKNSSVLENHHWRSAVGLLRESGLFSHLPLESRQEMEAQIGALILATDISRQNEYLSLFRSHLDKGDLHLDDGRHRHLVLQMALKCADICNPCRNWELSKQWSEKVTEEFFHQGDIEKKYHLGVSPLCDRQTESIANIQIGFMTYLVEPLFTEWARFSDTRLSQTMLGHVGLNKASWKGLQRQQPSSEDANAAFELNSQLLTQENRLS
# Brain [7] = assay: Free drug level in C57 mouse brain homogenate at 10 mg/kg, ip; assay type: ADME, organism-based; parameters: dose 10 mg/kg, route intraperitoneal; settings: in vivo
# Brain [8] = assay: Free drug level in C57 mouse brain homogenate at 100 mg/kg, ip; assay type: ADME, organism-based; parameters: dose 100 mg/kg, route intraperitoneal; settings: in vivo
# Brain [9] = assay: Free drug level in C57 mouse brain homogenate at 30 mg/kg, ip; assay type: ADME, organism-based; parameters: dose 30 mg/kg, route intraperitoneal; settings: in vivo
# [10] = Ratio of drug level in brain to plasma in C57 mouse at 30 mg/kg, ip after 30 mins; assay type: ADME, organism-based; parameters: dose 30 mg/kg, route intraperitoneal; settings: read-out: BPR
# [11] = Ratio of drug level in brain to plasma in C57 mouse at 100 mg/kg, ip after 30 mins; assay type: ADME, organism-based; parameters: dose 100 mg/kg, route intraperitoneal; settings: read-out: BPR
# [12] = Drug uptake in C57 mouse brain at 100 mg/kg, ip after 30 mins; assay type: ADME, organism-based; parameters: dose 100 mg/kg, route intraperitoneal; settings: read-out: Drug uptake
# [13] = Plasma concentration in C57 mouse at 100 mg/kg, ip after 30 mins; assay type: ADME, organism-based; parameters: dose 100 mg/kg, route intraperitoneal
# [14] = Drug uptake in C57 mouse brain at 30 mg/kg, ip after 30 mins; assay type: ADME, organism-based; parameters: dose 30 mg/kg, route intraperitoneal; settings: read-out: Drug uptake
# [15] = Plasma concentration in C57 mouse at 30 mg/kg, ip after 30 mins; assay type: ADME, organism-based; parameters: dose 30 mg/kg, route intraperitoneal
# [16] = Tmax in C57 mouse at 30 mg/kg, ip; assay type: ADME, organism-based; parameters: dose 30 mg/kg, route intraperitoneal; settings: in vivo
# [17] = Tmax in C57 mouse at 100 mg/kg, ip; assay type: ADME, organism-based; parameters: dose 100 mg/kg, route intraperitoneal; settings: in vivo
# [18] = AUC in C57 mouse at 30 mg/kg, ip; assay type: ADME, organism-based; parameters: dose 30 mg/kg, route intraperitoneal; settings: plasma
# [19] = AUC in C57 mouse at 100 mg/kg, ip; assay type: ADME, organism-based; parameters: dose 100 mg/kg, route intraperitoneal; settings: plasma
# [20] = Cmax in C57 mouse at 100 mg/kg, ip; assay type: ADME, organism-based; parameters: dose 100 mg/kg, route intraperitoneal; settings: in vivo
# [21] = Cmax in C57 mouse at 30 mg/kg, ip; assay type: ADME, organism-based; parameters: dose 30 mg/kg, route intraperitoneal; settings: in vivo
# Brain [22] = assay: Free drug level in C57 mouse brain homogenate at 1 uM by high throughput dialysis method; assay type: ADME, tissue-based; settings: in vivo
# [23] = Tmax in C57 mouse at 10 mg/kg, ip; assay type: ADME, organism-based; parameters: dose 10 mg/kg, route intraperitoneal; settings: in vivo
# [24] = AUC in C57 mouse at 10 mg/kg, ip; assay type: ADME, organism-based; parameters: dose 10 mg/kg, route intraperitoneal; settings: plasma
# [25] = Ratio of drug level in brain to plasma in C57 mouse at 10 mg/kg, ip after 30 mins; assay type: ADME, organism-based; parameters: dose 10 mg/kg, route intraperitoneal; settings: read-out: BPR
# [26] = Cmax in C57 mouse at 10 mg/kg, ip; assay type: ADME, organism-based; parameters: dose 10 mg/kg, route intraperitoneal; settings: in vivo
# [27] = Plasma concentration in C57 mouse at 10 mg/kg, ip after 30 mins; assay type: ADME, organism-based; parameters: dose 10 mg/kg, route intraperitoneal
# [28] = Drug uptake in C57 mouse brain at 10 mg/kg, ip after 30 mins; assay type: ADME, organism-based; parameters: dose 10 mg/kg, route intraperitoneal; settings: read-out: Drug uptake
# [29] = Metabolic stability in mouse liver microsomes assessed as compound remaining after 60 mins; assay type: ADME, Microsome; settings: read-out: Stability
# [30] = Metabolic stability in rat liver microsomes assessed as compound remaining after 60 mins; assay type: ADME, Microsome; settings: read-out: Stability
# Homo sapiens [31] = species: Homo sapiens; assay: Selectivity ratio of IC50 for cloned human recombinant PDE4D to IC50 for cloned human recombinant PDE7B
# [32] = Metabolic stability in human liver microsomes assessed as compound remaining after 60 mins; assay type: ADME, Microsome; settings: read-out: Stability
# Homo sapiens [33] = species: Homo sapiens; assay: Selectivity ratio of IC50 for cloned human recombinant PDE4D to IC50 for cloned human recombinant PDE7A
# [34] = molecular target: T2, 3',5'-cyclic-AMP phosphodiesterase 4D (Homo sapiens, UniProt Q08499); assay: Inhibition of cloned human recombinant PDE4D assessed as [3H]cAMP hydrolysis by radiometric assay
# T2 sequence (Q08499 whole entry): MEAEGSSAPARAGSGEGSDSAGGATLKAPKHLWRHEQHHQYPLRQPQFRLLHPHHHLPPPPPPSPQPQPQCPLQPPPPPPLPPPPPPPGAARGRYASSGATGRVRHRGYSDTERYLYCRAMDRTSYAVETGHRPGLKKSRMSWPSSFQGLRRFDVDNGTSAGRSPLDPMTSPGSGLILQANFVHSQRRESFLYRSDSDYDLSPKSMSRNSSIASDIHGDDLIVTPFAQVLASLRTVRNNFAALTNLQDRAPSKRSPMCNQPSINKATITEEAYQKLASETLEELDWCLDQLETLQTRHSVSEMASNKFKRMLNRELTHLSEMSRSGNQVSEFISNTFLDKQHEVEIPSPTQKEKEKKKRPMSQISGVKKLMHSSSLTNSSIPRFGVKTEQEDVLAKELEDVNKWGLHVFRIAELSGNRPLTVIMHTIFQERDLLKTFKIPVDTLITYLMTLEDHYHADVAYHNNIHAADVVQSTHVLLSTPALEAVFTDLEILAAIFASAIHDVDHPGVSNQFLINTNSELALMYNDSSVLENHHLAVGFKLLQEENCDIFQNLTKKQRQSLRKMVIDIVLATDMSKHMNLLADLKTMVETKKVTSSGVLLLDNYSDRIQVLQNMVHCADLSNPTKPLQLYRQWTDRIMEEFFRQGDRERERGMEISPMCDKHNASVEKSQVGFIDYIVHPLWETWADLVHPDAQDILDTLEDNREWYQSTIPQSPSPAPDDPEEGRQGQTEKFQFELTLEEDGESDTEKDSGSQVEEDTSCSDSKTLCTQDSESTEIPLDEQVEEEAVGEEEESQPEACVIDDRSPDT
# [35] = molecular target: Dual 3',5'-cyclic-AMP and -GMP phosphodiesterase 11A (Homo sapiens) (UniProt Q9HCR9); assay: Inhibition of cloned human recombinant PDE11A assessed as [3H]cAMP hydrolysis at 10 uM by radiometric assay
# Chain of Dual 3',5'-cyclic-AMP and -GMP phosphodiesterase 11A (Homo sapiens) (Q9HCR9 whole entry, looked up): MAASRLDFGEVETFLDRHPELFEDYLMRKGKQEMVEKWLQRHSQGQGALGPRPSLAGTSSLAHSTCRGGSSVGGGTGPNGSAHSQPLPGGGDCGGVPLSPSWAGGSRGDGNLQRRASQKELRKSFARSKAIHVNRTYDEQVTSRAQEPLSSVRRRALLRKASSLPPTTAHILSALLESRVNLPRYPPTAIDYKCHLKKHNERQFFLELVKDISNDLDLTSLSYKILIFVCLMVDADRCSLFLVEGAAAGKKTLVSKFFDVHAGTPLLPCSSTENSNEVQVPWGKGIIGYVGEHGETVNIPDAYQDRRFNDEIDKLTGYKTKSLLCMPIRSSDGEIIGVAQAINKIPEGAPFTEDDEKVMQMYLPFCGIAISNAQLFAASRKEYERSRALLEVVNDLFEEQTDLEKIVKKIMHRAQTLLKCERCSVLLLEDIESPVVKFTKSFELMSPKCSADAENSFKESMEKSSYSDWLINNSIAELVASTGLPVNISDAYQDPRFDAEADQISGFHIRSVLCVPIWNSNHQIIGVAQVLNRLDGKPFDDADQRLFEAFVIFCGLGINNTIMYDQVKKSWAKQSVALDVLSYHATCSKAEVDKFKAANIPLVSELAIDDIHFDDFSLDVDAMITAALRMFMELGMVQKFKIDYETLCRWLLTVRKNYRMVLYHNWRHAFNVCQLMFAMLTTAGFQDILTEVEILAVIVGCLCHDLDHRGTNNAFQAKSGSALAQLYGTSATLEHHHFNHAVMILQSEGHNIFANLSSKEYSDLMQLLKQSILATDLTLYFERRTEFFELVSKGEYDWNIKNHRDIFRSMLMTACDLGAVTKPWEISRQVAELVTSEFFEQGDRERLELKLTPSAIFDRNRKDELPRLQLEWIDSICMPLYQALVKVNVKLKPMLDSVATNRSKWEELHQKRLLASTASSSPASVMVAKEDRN
# [36] = molecular target: cAMP and cAMP-inhibited cGMP 3',5'-cyclic phosphodiesterase 10A (Homo sapiens) (UniProt Q9Y233); assay: Inhibition of cloned human recombinant PDE10A assessed as [3H]cAMP hydrolysis at 10 uM by radiometric assay
# Chain of cAMP and cAMP-inhibited cGMP 3',5'-cyclic phosphodiesterase 10A (Homo sapiens) (Q9Y233 whole entry): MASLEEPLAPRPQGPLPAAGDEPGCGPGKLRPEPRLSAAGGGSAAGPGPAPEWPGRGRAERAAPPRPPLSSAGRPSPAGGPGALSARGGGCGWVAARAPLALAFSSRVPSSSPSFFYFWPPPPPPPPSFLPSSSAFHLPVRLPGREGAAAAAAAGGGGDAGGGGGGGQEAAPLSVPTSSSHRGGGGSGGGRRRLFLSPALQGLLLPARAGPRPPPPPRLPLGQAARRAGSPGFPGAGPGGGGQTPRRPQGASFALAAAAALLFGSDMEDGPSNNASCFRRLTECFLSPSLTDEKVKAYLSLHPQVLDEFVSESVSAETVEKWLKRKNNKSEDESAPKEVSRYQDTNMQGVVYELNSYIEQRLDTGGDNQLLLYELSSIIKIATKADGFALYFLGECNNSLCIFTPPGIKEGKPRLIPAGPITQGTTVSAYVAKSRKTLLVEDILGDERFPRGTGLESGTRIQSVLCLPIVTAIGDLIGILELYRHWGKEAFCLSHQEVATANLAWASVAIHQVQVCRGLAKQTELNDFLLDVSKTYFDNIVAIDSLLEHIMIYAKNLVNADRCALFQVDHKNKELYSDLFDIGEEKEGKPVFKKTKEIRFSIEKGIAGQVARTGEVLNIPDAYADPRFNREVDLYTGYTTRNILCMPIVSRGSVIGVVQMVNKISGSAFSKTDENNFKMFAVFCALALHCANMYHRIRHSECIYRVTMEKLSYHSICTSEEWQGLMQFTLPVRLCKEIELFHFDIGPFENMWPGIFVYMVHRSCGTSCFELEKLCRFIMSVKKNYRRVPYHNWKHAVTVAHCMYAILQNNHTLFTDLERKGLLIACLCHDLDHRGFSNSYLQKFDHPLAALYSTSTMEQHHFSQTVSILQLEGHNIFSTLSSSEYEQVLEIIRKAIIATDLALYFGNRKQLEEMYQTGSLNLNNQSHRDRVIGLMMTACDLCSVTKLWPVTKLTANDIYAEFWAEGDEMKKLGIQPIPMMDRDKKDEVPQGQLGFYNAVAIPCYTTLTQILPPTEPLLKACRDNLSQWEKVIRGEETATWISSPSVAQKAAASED
# [37] = molecular target: High affinity cGMP-specific 3',5'-cyclic phosphodiesterase 9A (Homo sapiens) (UniProt O76083); assay: Inhibition of cloned human recombinant PDE9A2 assessed as [3H]cAMP hydrolysis at 10 uM by radiometric assay
# Chain of High affinity cGMP-specific 3',5'-cyclic phosphodiesterase 9A (Homo sapiens) (O76083 whole entry): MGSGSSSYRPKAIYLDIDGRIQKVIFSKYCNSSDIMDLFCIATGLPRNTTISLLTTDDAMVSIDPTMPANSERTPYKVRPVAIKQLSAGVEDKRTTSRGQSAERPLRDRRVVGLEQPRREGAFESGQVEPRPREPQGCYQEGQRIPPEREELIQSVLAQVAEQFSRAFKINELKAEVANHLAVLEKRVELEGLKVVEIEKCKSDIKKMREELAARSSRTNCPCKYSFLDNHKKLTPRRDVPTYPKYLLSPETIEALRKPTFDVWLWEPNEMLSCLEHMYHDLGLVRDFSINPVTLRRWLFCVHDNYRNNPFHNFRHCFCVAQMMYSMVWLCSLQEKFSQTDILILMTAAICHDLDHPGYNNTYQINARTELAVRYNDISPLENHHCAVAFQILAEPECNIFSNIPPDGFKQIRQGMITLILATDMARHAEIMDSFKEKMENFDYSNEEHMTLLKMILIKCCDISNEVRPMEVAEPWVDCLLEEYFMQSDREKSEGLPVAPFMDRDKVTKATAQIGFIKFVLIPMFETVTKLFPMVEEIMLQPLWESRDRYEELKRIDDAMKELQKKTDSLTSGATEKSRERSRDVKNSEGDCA
# [38] = molecular target: High affinity cAMP-specific and IBMX-insensitive 3',5'-cyclic phosphodiesterase 8A (Homo sapiens) (UniProt O60658); assay: Inhibition of cloned human recombinant PDE8A1 assessed as [3H]cAMP hydrolysis at 10 uM by radiometric assay
# Chain of High affinity cAMP-specific and IBMX-insensitive 3',5'-cyclic phosphodiesterase 8A (Homo sapiens) (O60658 whole entry): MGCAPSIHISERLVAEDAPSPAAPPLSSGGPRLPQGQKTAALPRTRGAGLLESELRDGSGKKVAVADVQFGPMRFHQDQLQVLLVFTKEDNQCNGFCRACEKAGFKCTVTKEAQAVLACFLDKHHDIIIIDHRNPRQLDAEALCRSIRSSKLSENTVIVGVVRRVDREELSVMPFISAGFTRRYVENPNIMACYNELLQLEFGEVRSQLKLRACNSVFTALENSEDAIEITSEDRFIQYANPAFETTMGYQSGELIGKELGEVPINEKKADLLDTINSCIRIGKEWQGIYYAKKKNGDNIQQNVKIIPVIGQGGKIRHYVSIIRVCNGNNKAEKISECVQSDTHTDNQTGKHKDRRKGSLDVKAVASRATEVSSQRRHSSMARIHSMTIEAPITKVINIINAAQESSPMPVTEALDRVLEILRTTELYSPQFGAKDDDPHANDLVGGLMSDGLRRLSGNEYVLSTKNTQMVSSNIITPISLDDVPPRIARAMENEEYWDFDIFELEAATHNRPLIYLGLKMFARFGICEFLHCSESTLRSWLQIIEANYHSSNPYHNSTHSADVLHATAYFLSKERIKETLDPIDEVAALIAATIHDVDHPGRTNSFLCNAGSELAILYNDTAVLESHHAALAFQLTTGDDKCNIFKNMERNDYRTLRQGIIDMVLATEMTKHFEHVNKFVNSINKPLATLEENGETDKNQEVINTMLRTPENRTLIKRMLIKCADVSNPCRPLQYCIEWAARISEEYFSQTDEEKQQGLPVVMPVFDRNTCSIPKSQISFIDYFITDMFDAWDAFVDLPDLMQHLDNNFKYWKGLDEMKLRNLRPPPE
# [39] = molecular target: cGMP-specific 3',5'-cyclic phosphodiesterase (Homo sapiens) (UniProt O76074); assay: Inhibition of cloned human recombinant PDE5A assessed as [3H]cAMP hydrolysis at 10 uM by radiometric assay
# [40] = molecular target: T2, 3',5'-cyclic-AMP phosphodiesterase 4D; assay: Inhibition of cloned human recombinant PDE4D assessed as [3H]cAMP hydrolysis at 10 uM by radiometric assay
# [41] = molecular target: cGMP-inhibited 3',5'-cyclic phosphodiesterase 3A (Homo sapiens) (UniProt Q14432); assay: Inhibition of cloned human recombinant PDE3A assessed as [3H]cAMP hydrolysis at 10 uM by radiometric assay
# [42] = molecular target: cGMP-dependent 3',5'-cyclic phosphodiesterase (Homo sapiens) (UniProt O00408); assay: Inhibition of cloned human recombinant PDE2A assessed as [3H]cAMP hydrolysis at 10 uM by radiometric assay
# [43] = molecular target: Dual specificity calcium/calmodulin-dependent 3',5'-cyclic nucleotide phosphodiesterase 1A (Homo sapiens) (UniProt P54750); assay: Inhibition of cloned human recombinant PDE1A assessed as [3H]cAMP hydrolysis at 10 uM by radiometric assay
# [44] = molecular target: 3',5'-cyclic-AMP phosphodiesterase 7B (Homo sapiens, UniProt Q9NP56); assay: Inhibition of cloned human recombinant PDE7B assessed as [3H]cAMP hydrolysis by radiometric assay
# Chain of 3',5'-cyclic-AMP phosphodiesterase 7B (Q9NP56 whole entry): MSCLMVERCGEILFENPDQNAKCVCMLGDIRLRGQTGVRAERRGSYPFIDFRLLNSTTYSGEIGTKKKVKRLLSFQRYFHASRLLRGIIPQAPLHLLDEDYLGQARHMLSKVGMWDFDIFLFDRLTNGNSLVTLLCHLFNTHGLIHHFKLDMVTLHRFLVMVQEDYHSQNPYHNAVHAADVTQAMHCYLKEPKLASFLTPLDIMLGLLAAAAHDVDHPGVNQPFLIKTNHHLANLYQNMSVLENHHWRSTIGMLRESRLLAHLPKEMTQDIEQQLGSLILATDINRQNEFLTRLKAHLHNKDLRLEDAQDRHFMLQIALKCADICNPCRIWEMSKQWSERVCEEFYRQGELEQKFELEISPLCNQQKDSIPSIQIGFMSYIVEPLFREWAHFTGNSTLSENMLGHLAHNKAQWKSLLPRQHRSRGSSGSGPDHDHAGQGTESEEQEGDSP
# [45] = molecular target: High affinity 3',5'-cyclic-AMP phosphodiesterase 7A (Homo sapiens, UniProt Q13946); assay: Inhibition of cloned human recombinant PDE7A assessed as [3H]cAMP hydrolysis by radiometric assay
compound,measurement,setting,value
COc1cc(N)ccc1-c1nc2c(C)nn(C3CCCCC3)c(=O)c2[nH]1,Activity,Mus musculus [1],Toxic
same,Activity,Mus musculus [2],Toxic
same,Activity,Mus musculus [3],Non-toxic
same,Activity,Mus musculus [4],Toxic
same,Activity,Mus musculus [5],inactive
same,IC50,[6],63 nM
same,Drug uptake(free),Brain [7],6 nM
same,Drug uptake(free),Brain [8],763 nM
same,Drug uptake(free),Brain [9],91 nM
same,Kp at 0.5 h,[10],3.43
same,Kp at 0.5 h,[11],3.05
same,concentration at 0.5 h,[12],135000 ng/g
same,concentration at 0.5 h,[13],44200 ng/mL
same,concentration at 0.5 h,[14],16000 ng/g
same,concentration at 0.5 h,[15],4680 ng/mL
same,Tmax,[16],15 min
same,Tmax,[17],30 min
same,AUC,[18],5020 ng·h/mL
same,AUC,[19],168000 ng·h/mL
same,Cmax,[20],44200 ng/mL
same,Cmax,[21],6350 ng/mL
same,Drug uptake(free),Brain [22],0.2%
same,Tmax,[23],15 min
same,AUC,[24],792 ng·h/mL
same,Kp at 0.5 h,[25],1.69
same,Cmax,[26],1480 ng/mL
same,concentration at 0.5 h,[27],699 ng/mL
same,concentration at 0.5 h,[28],1140 ng/g
same,remaining at 1 h,[29],4%
same,remaining at 1 h,[30],68%
same,Ratio IC50,Homo sapiens [31],> 150
same,remaining at 1 h,[32],43%
same,Ratio IC50,Homo sapiens [33],> 200
same,IC50,[34],6550 nM
same,inhibition,[35],10%
same,inhibition,[36],23%
same,inhibition,[37],9%
same,inhibition,[38],0%
same,inhibition,[39],3%
same,inhibition,[40],86%
same,inhibition,[41],6%
same,inhibition,[42],29%
same,inhibition,[43],37%
same,IC50,[44],43 nM
same,IC50,[45],31 nM

# — ChEMBL document CHEMBL2169851, “Imidazopyridazinones as novel PDE7 inhibitors: SAR and in vivo studies in Parkinson's disease model” (Bioorg Med Chem Lett, 2012)
